Source: patent US7910751B2, “Heterocyclidene acetamide derivative” (Mochida Pharmaceutical Co., Ltd., priority 2005, dated 2011)

Each compound was assayed against T1, human TRPV1 (Homo sapiens, UniProt Q8NER1) (assay: Measurement of capsaicin-induced Ca influx in human TRPV1 transformed CHO cell line using FDSS-6000). Conditions: concentration at which the capsaicin concentration-reaction curve is shifted two times to the right, human TRPV1 transformed CHO cells.
T1 construct: expressed in transfected cells; host or cells: CHO-K1
Format: cell-based

T1 sequence (Q8NER1 whole entry): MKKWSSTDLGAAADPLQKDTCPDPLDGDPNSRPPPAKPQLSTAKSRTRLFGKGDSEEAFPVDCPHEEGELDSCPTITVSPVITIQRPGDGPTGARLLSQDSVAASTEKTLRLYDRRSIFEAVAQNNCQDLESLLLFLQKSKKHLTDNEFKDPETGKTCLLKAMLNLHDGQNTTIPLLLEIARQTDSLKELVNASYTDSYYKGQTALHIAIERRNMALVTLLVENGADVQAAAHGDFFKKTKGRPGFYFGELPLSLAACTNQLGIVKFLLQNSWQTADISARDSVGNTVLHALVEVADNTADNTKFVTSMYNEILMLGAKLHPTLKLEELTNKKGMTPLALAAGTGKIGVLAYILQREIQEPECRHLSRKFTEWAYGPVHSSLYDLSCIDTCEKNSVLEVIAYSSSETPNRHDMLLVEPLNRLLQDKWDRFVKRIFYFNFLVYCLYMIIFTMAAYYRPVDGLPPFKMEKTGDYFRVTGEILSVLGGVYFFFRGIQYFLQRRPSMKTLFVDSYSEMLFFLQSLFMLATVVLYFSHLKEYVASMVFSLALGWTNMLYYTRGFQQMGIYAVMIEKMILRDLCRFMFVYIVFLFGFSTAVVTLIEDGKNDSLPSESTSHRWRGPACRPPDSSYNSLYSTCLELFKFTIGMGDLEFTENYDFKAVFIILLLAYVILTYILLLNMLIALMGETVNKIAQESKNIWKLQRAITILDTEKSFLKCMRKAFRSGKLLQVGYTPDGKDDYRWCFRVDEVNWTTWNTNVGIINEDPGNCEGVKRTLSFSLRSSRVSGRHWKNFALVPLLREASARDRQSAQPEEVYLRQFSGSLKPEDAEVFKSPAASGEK

Structure (SMILES) | A2 VALUE
O=C(/C=C1\CCCOc2cc(C(F)(F)F)ccc21)Nc1cccc2c1CC(O)C(O)C2 (stereo not drawn) [Example 66, (E)-2-(8-trifluoromethyl-3,4-dihydrobenzo[b]oxepin-5-(2H)-ylidene)-N-(cis-6,7-dihydroxy-5,6,7,8-tetrahydronaphthalen-1-yl)acetamide] | A (compounds of the present invention having an A2 value of less than 100 nM are represented by A)
O=C(/C=C1\CCCOc2cc(C(F)(F)F)ccc21)Nc1cccc2c1CC(O)C(=O)N2 (stereo not drawn) [Example 67, (E)-2-(8-trifluoromethyl-3,4-dihydrobenzo[b]oxepin-5(2H)-ylidene)-N-(3-hydroxy-2-oxo-1,2,3,4-tetrahydroquinolin-5-yl)acetamide] | A (compounds of the present invention having an A2 value of less than 100 nM are represented by A)
O=C(/C=C1\CCCOc2cc(C(F)(F)F)ccc21)Nc1cccc2c1CC(O)CN2 (stereo not drawn) [Example 68, (E)-2-(8-trifluoromethyl-3,4-dihydrobenzo[b]oxepin-5(2H)-ylidene)-N-(3-hydroxy-1,2,3,4-tetrahydroquinolin-5-yl)acetamide] | A (compounds of the present invention having an A2 value of less than 100 nM are represented by A)
CN1CC(O)Cc2c(NC(=O)/C=C3\CCCOc4cc(C(F)(F)F)ccc43)cccc21 (stereo not drawn) [Example 69, (E)-2-(8-trifluoromethyl-3,4-dihydrobenzo[b]oxepin-5-(2H)-ylidene)-N-(1-methyl-3-hydroxy-1,2,3,4-tetrahydroquinolin-5-yl)acetamide] | A (compounds of the present invention having an A2 value of less than 100 nM are represented by A)
O=C(/C=C1\CCOc2cc(C(F)(F)F)ccc21)Nc1cccc2c1CC(O)CC2 (stereo not drawn) [Example 70, (E)-2-(7-trifluoromethyl-chroman-4-ylidene)-N-(7-hydroxy-5,6,7,8-tetrahydronaphthalen-1-yl)acetamide] | A (compounds of the present invention having an A2 value of less than 100 nM are represented by A)
O=C(/C=C1\CCOc2cc(C(F)(F)F)ccc21)Nc1cccc2c1CC(O)CC2 (stereo not drawn) [Example 71, (E)-2-(7-trifluoromethyl-chroman-4-ylidene)-N-(7-hydroxy-5,6,7,8-tetrahydronaphthalen-1-yl)acetamide] | A (compounds of the present invention having an A2 value of less than 100 nM are represented by A)
O=C(/C=C1\CCOc2cc(C(F)(F)F)ccc21)Nc1cccc2c1CC(O)CC2 (stereo not drawn) [Example 72, (E)-2-(7-trifluoromethyl-chroman-4-ylidene)-N-(7-hydroxy-5,6,7,8-tetrahydronaphthalen-1-yl)acetamide] | A (compounds of the present invention having an A2 value of less than 100 nM are represented by A)
O=C(/C=C1\CCN(C(=O)C2CCCC2)c2cc(C(F)(F)F)ccc21)Nc1ccc2cccnc2c1 [Example 73, (E)-2-(1-cyclopentanecarbonyl-7-trifluoromethyl-2,3-dihydroquinolin-4(1H)-ylidene)-N-(quinolin-7-yl)acetamide] | A (compounds of the present invention having an A2 value of less than 100 nM are represented by A)
CCCCC(=O)N1CC/C(=C\C(=O)Nc2cccc3ccc(O)cc23)c2ccc(C(F)(F)F)cc21 [Example 74, (E)-2-(1-pentanoyl-7-trifluoromethyl-2,3-dihydroquinolin-4(1H)-ylidene)-N-(7-hydroxynaphthalen-1-yl)acetamide] | A (compounds of the present invention having an A2 value of less than 100 nM are represented by A)
O=C(/C=C1\CCN(C(=O)C2CCC2)c2cc(C(F)(F)F)ccc21)Nc1ccc2cccnc2c1 [Example 75, (E)-2-(1-cyclobutanecarbonyl-7-trifluoromethyl-2,3-dihydroquinolin-4(1H)-ylidene)-N-(quinolin-7-yl)acetamide] | A (compounds of the present invention having an A2 value of less than 100 nM are represented by A)
CC(C)(C)CC(=O)N1CC/C(=C\C(=O)Nc2ccc3cccnc3c2)c2ccc(C(F)(F)F)cc21 [Example 76, (E)-2-(1-(3,3-dimethylbutanoyl)-7-trifluoromethyl-2,3-dihydroquinolin-4(1H)-ylidene)-N-(quinolin-7-yl)acetamide] | A (compounds of the present invention having an A2 value of less than 100 nM are represented by A)
CC(C)CC(=O)N1CC/C(=C\C(=O)Nc2ccc3cccnc3c2)c2ccc(C(F)(F)F)cc21 [Example 77, (E)-2-(1-(3-methylbutanoyl)-7-trifluoromethyl-2,3-dihydroquinolin-4(1H)-ylidene)-N-(quinolin-7-yl)acetamide] | A (compounds of the present invention having an A2 value of less than 100 nM are represented by A)
CC(C)CCC(=O)N1CC/C(=C\C(=O)Nc2ccc3cccnc3c2)c2ccc(C(F)(F)F)cc21 [Example 78, (E)-2-(1-(4-methylpentanoyl)-7-trifluoromethyl-2,3-dihydroquinolin-4(1H)-ylidene)-N-(quinolin-7-yl)acetamide] | A (compounds of the present invention having an A2 value of less than 100 nM are represented by A)
CCC(C)CC(=O)N1CC/C(=C\C(=O)Nc2ccc3cccnc3c2)c2ccc(C(F)(F)F)cc21 (stereo not drawn) [Example 79, (E)-2-(1-(3-methylpentanoyl)-7-trifluoromethyl-2,3-dihydroquinolin-4(1H)-ylidene)-N-(quinolin-7-yl)acetamide] | A (compounds of the present invention having an A2 value of less than 100 nM are represented by A)
CCCC(C)C(=O)N1CC/C(=C\C(=O)Nc2ccc3cccnc3c2)c2ccc(C(F)(F)F)cc21 (stereo not drawn) [Example 80, (E)-2-(1-(2-methylpentanoyl)-7-trifluoromethyl-2,3-dihydroquinolin-4(1H)-ylidene)-N-(quinolin-7-yl)acetamide] | A (compounds of the present invention having an A2 value of less than 100 nM are represented by A)
CCCC(C)(C)C(=O)N1CC/C(=C\C(=O)Nc2ccc3cccnc3c2)c2ccc(C(F)(F)F)cc21 [Example 81, (E)-2-(1-(2,2-dimethylpentanoyl)-7-trifluoromethyl-2,3-dihydroquinolin-4(1H)-ylidene)-N-(quinolin-7-yl)acetamide] | A (compounds of the present invention having an A2 value of less than 100 nM are represented by A)
O=C(/C=C1\CCN(C(=O)C2CCCC2)c2cc(C(F)(F)F)ccc21)Nc1cccc2c1CC(O)CC2 (stereo not drawn) [Example 82, (E)-2-(1-cyclopentanecarbonyl-7-trifluoromethyl-2,3-dihydroquinolin-4(1H)-ylidene)-N-(7-hydroxy-5,6,7,8-tetrahydronaphthalen-1-yl)acetamide] | A (compounds of the present invention having an A2 value of less than 100 nM are represented by A)
CCCCC(=O)N1CC/C(=C\C(=O)Nc2cccc3c2CC(O)CC3)c2ccc(C(F)(F)F)cc21 (stereo not drawn) [Example 83, (E)-2-(1-pentanoyl-7-trifluoromethyl-2,3-dihydroquinolin-4(1H)-ylidene)-N-(7-hydroxy-5,6,7,8-tetrahydronaphthalen-1-yl)acetamide] | A (compounds of the present invention having an A2 value of less than 100 nM are represented by A)
